Experimental data: patent EP3002287B1, “Thiochromeno[2,3-c]quinolin-12-one derivatives and their use as topoisomerase inhibitors” (National Defense Medical Center, priority 2014, dated 2016)

Key:
MALME-3M = test: NCI in vitro 60-cell drug screen (SRB assay); format: cell-based; details: MALME-3M (Melanoma); 10^-5 molar concentration; 48 hours
ACHN = test: NCI in vitro 60-cell drug screen (SRB assay); format: cell-based; details: ACHN (Renal cancer); 10^-5 molar concentration; 48 hours
KM12 = test: NCI in vitro 60-cell drug screen (SRB assay); format: cell-based; details: KM12 (Colon cancer); 10^-5 molar concentration; 48 hours
UO-31 = test: NCI in vitro 60-cell drug screen (SRB assay); format: cell-based; details: UO-31 (Renal cancer); 10^-5 molar concentration; 48 hours
BT-549 = test: NCI in vitro 60-cell drug screen (SRB assay); format: cell-based; details: BT-549 (Breast cancer); 10^-5 molar concentration; 48 hours
SK-MEL-5 = test: NCI in vitro 60-cell drug screen (SRB assay); format: cell-based; details: SK-MEL-5 (Melanoma); 10^-5 molar concentration; 48 hours
SK-MEL-2 = test: NCI in vitro 60-cell drug screen (SRB assay); format: cell-based; details: SK-MEL-2 (Melanoma); 10^-5 molar concentration; 48 hours
IGROV1 = test: NCI in vitro 60-cell drug screen (SRB assay); format: cell-based; details: IGROV1 (Ovarian cancer); 10^-5 molar concentration; 48 hours
TK-10 = test: NCI in vitro 60-cell drug screen (SRB assay); format: cell-based; details: TK-10 (Renal cancer); 10^-5 molar concentration; 48 hours
NCI-H322M = test: NCI in vitro 60-cell drug screen (SRB assay); format: cell-based; details: NCI-H322M (Non-small cell lung cancer); 10^-5 molar concentration; 48 hours
HCT-15 = test: NCI in vitro 60-cell drug screen (SRB assay); format: cell-based; details: HCT-15 (Colon cancer); 10^-5 molar concentration; 48 hours
SF-268 = test: NCI in vitro 60-cell drug screen (SRB assay); format: cell-based; details: SF-268 (CNS cancer); 10^-5 molar concentration; 48 hours
A549/ATCC = test: NCI in vitro 60-cell drug screen (SRB assay); format: cell-based; details: A549/ATCC (Non-small cell lung cancer); 10^-5 molar concentration; 48 hours
K-562 = test: NCI in vitro 60-cell drug screen (SRB assay); format: cell-based; details: K-562 (Leukemia); 10^-5 molar concentration; 48 hours
U251 = test: NCI in vitro 60-cell drug screen (SRB assay); format: cell-based; details: U251 (CNS cancer); 10^-5 molar concentration; 48 hours
HCT-116 = test: NCI in vitro 60-cell drug screen (SRB assay); format: cell-based; details: HCT-116 (Colon cancer); 10^-5 molar concentration; 48 hours
HOP-62 = test: NCI in vitro 60-cell drug screen (SRB assay); format: cell-based; details: HOP-62 (Non-small cell lung cancer); 10^-5 molar concentration; 48 hours
COLO 205 = test: NCI in vitro 60-cell drug screen (SRB assay); format: cell-based; details: COLO 205 (Colon cancer); 10^-5 molar concentration; 48 hours
M14 = test: NCI in vitro 60-cell drug screen (SRB assay); format: cell-based; details: M14 (Melanoma); 10^-5 molar concentration; 48 hours
MDA-MB-486 = test: NCI in vitro 60-cell drug screen (SRB assay); format: cell-based; details: MDA-MB-486 (Breast cancer); 10^-5 molar concentration; 48 hours
UACC-62 = test: NCI in vitro 60-cell drug screen (SRB assay); format: cell-based; details: UACC-62 (Melanoma); 10^-5 molar concentration; 48 hours
CCRF-CEM = test: NCI in vitro 60-cell drug screen (SRB assay); format: cell-based; details: CCRF-CEM (Leukemia); 10^-5 molar concentration; 48 hours
MOLT-4 = test: NCI in vitro 60-cell drug screen (SRB assay); format: cell-based; details: MOLT-4 (Leukemia); 10^-5 molar concentration; 48 hours
A498 = test: NCI in vitro 60-cell drug screen (SRB assay); format: cell-based; details: A498 (Renal cancer); 10^-5 molar concentration; 48 hours
MCF7 = test: NCI in vitro 60-cell drug screen (SRB assay); format: cell-based; details: MCF7 (Breast cancer); 10^-5 molar concentration; 48 hours
SR = test: NCI in vitro 60-cell drug screen (SRB assay); format: cell-based; details: SR (Leukemia); 10^-5 molar concentration; 48 hours
MDA-MB-435 = test: NCI in vitro 60-cell drug screen (SRB assay); format: cell-based; details: MDA-MB-435 (Melanoma); 10^-5 molar concentration; 48 hours
UACC-257 = test: NCI in vitro 60-cell drug screen (SRB assay); format: cell-based; details: UACC-257 (Melanoma); 10^-5 molar concentration; 48 hours
MDA-MB-231/ATCC = test: NCI in vitro 60-cell drug screen (SRB assay); format: cell-based; details: MDA-MB-231/ATCC (Breast cancer); 10^-5 molar concentration; 48 hours
SF-295 = test: NCI in vitro 60-cell drug screen (SRB assay); format: cell-based; details: SF-295 (CNS cancer); 10^-5 molar concentration; 48 hours
T-47D = test: NCI in vitro 60-cell drug screen (SRB assay); format: cell-based; details: T-47D (Breast cancer); 10^-5 molar concentration; 48 hours
HOP-92 = test: NCI in vitro 60-cell drug screen (SRB assay); format: cell-based; details: HOP-92 (Non-small cell lung cancer); 10^-5 molar concentration; 48 hours
HCC-2998 = test: NCI in vitro 60-cell drug screen (SRB assay); format: cell-based; details: HCC-2998 (Colon cancer); 10^-5 molar concentration; 48 hours
SK-MEL-28 = test: NCI in vitro 60-cell drug screen (SRB assay); format: cell-based; details: SK-MEL-28 (Melanoma); 10^-5 molar concentration; 48 hours
60 cell lines = test: NCI in vitro 60-cell drug screen (SRB assay), whole panel statistics; details: mean over the cell panel; 10^-5 molar concentration; 48 hours
SW-620 = test: NCI in vitro 60-cell drug screen (SRB assay); format: cell-based; details: SW-620 (Colon cancer); 10^-5 molar concentration; 48 hours

In the case of `O=c1c2cc(Cl)ccc2sc2c(O)nc3ccccc3c12` [Compound 4, 10-Chloro-6-hydroxy-12H-thiochromeno[2,3-c]quinolin-12-one], the Growth percent (MALME-3M) is reported as 93.26%, the Growth percent (ACHN) is reported as 95.52% and the Growth percent (KM12) is reported as 102.45%. It also gave a Growth percent (UO-31) of 76.44%, a Growth percent (BT-549) of 85.17% and a Growth percent (SK-MEL-5) of 100.69%. The Growth percent (SK-MEL-2) was 103.04%, the Growth percent (IGROV1) was 78.35% and the Growth percent (TK-10) was 113.26%. It also gave a Growth percent (NCI-H322M) of 90.87%, a Growth percent (HCT-15) of 98.11% and a Growth percent (SF-268) of 95.26%. It also gave a Growth percent (A549/ATCC) of 95.25%, a Growth percent (K-562) of 107.08% and a Growth percent (U251) of 101.85%. The Growth percent (HCT-116) was 86.20%, the Growth percent (HOP-62) was 90.80% and the Growth percent (COLO 205) was 93.69%. For the same compound, the Growth percent (M14) was 94.76%, the Growth percent (MDA-MB-486) was 100.33% and the Growth percent (UACC-62) was 105.86%. For the same compound, the Growth percent (CCRF-CEM) was 107.78%, the Growth percent (MOLT-4) was 100.41% and the Growth percent (A498) was 107.74%. The Growth percent (MCF7) was 69.90%, the Growth percent (SR) was 96.00% and the Growth percent (MDA-MB-435) was 103.18%. For the same compound, the Growth percent (UACC-257) was 108.36%, the Growth percent (MDA-MB-231/ATCC) was 81.80% and the Growth percent (SF-295) was 99.93%. For the same compound, the Growth percent (T-47D) was 77.89%, the Growth percent (HOP-92) was 93.13% and the Growth percent (HCC-2998) was 101.48%. The Growth percent (SK-MEL-28) was 116.59%, the “Growth percent, Mean” value (60 cell lines) was 97.17% and the Growth percent (SW-620) was 101.39%.

Work on `COc1nc2ccccc2c2c(=O)c3cc(Cl)ccc3sc12` [Compound 5, 10-Chloro-6-methoxy-12H-thiochromeno[2,3-c]quinolin-12-one] yielded a Growth percent (MALME-3M) of 94.19%, a Growth percent (ACHN) of 74.89% and a Growth percent (KM12) of 98.03%. For the same compound, the Growth percent (UO-31) was 74.69%, the Growth percent (BT-549) was 94.85% and the Growth percent (SK-MEL-5) was 99.74%. For the same compound, the Growth percent (SK-MEL-2) was 105.52%, the Growth percent (IGROV1) was 71.44% and the Growth percent (TK-10) was 113.30%. The Growth percent (NCI-H322M) was 90.77%, the Growth percent (HCT-15) was 107.99% and the Growth percent (SF-268) was 94.12%. It also gave a Growth percent (A549/ATCC) of 100.46%, a Growth percent (K-562) of 95.83% and a Growth percent (U251) of 99.18%. The Growth percent (HCT-116) was 89.48%, the Growth percent (HOP-62) was 69.64% and the Growth percent (COLO 205) was 97.94%. For the same compound, the Growth percent (M14) was 88.40%, the Growth percent (MDA-MB-486) was 103.54% and the Growth percent (UACC-62) was 96.15%. For the same compound, the Growth percent (CCRF-CEM) was 106.56%, the Growth percent (MOLT-4) was 80.62% and the Growth percent (A498) was 96.29%. The Growth percent (MCF7) was 65.39%, the Growth percent (SR) was 88.18% and the Growth percent (MDA-MB-435) was 103.83%. The Growth percent (UACC-257) was 108.09%, the Growth percent (MDA-MB-231/ATCC) was 78.12% and the Growth percent (SF-295) was 86.35%. For the same compound, the Growth percent (T-47D) was 68.46%, the Growth percent (HOP-92) was 80.11% and the Growth percent (HCC-2998) was 104.67%. The Growth percent (SK-MEL-28) was 112.31%, the “Growth percent, Mean” value (60 cell lines) was 92.10% and the Growth percent (SW-620) was 103.05%.
